Laboratory results: patent US20230146455A1, “TREATMENT OF INFLAMMATORY DISEASES WITH PEPTIDES AND PHARMACEUTICAL COMPOSITIONS” (Yuyu Pharma, Inc., priority 2020, published 2023)
“And” between values parts separate entries of the source, which are not always exact repeats. Equal values may be shown once. Where a SMILES comes first, the peptide text is derived from it. [ ]: non-standard residue; d: D form. Hyp = O=C(O)[C@@H]1C[C@@H](O)CN1

Experiments:
IL-8 = assay: Example 9 Luminex, LPS hPBMCs: IL-8; assay type: cell-based, human
Procedure: (§1) Treatment Human PBMCs were pretreated with YY-101, YDE-011 and YDE-043 or reference compound; Xiidra® at various concentration (ranging from 1 nM to 100 uM) for 2 h before stimulation. An equal volume of 0.5% DMSO was used as a vehicle control. Then, the cells were treated with LPS at 5 ug/ml. The supernatants from treated cells were harvested at 24 h and placed in a 96 well for Luminex cytokine & chemokine profiling using a Luminex 200 multiplex assay (Luminex; R&D system, USA).
(§2) The main study arm with triplicate wells per group in a 24-well plate: • 1. Blank • 2. PBMC: 0.5% DMSO • 3. PBMC+LPS (5 ug/ml) • 4. PBMC+YY-101 100 uM • 5. PBMC+YY-101 10 uM • 6. PBMC+YY-101 1 uM • 7. PBMC+YY-101 0.1 uM • 8. PBMC+YY-101 0.01 uM • 9. PBMC+LPS (5 ug/ml)+Xiidra®100 uM • 10. PBMC+LPS (5 ug/ml)+Xiidra® 10 uM • 11. PBMC+LPS (5 ug/ml)+Xiidra® 1 uM • 12. PBMC+LPS (5 ug/ml)+Xiidra®0.1 uM • 13. PBMC+LPS (5 ug/ml)+Xiidra®0.01 uM • 14. PBMC+LPS (5 ug/ml)+Xiidra®0.001 uM • 15. PBMC+LPS (5 ug/ml)+YY-101 100 uM • 16. PBMC+LPS (5 ug/ml)+YY-101 10 uM • 17. PBMC+LPS (5 ug/ml)+YY-101 1 uM • 18. PBMC+LPS (5 ug/ml)+YY-101 0.1 uM • 19. PBMC+LPS (5 ug/ml)+YY-101 0.01 uM • 20. PBMC+LPS (5 ug/ml)+YY-101 0.001 uM • 21. PBMC+LPS (5 ug/ml)+YDE-011 100 uM • 22. PBMC+LPS (5 ug/ml)+YDE-011 10 uM • 23. PBMC+LPS (5 ug/ml)+YDE-011 1 uM • 24. PBMC+LPS (5 ug/ml)+YDE-011 0.1 uM • 25. PBMC+LPS (5 ug/ml)+YDE-011 0.01 uM • 26. PBMC+LPS (5 ug/ml)+YDE-011 0.001 uM • 27. PBMC+LPS (5 ug/ml)+YDE-043 100 uM • 28. PBMC+LPS (5 ug/ml)+YDE-043 10 uM • 29. PBMC+LPS (5 ug/ml)+YDE-043 1 uM • 30. PBMC+LPS (5 ug/ml)+YDE-043 0.1 uM • 31. PBMC+LPS (5 ug/ml)+YDE-043 0.01 uM • 32. PBMC+LPS (5 ug/ml)+YDE-043 0.001 uM
(§3) Multiplex assay was used to measure 30 cytokines and chemokines. The 1:2, 1:10 and 1:200 diluted cell supernatant and serial dilution of the standard were dispensed into a 96 well plate at 50 ul/well. Then, the pre-mixed cocktail of antibody-coated magnetic beads was dispensed at 50 ul/well and incubated at room temperature for 2 h in a horizontal orbital microplate shaker at 800±500 rpm. The beads were washed using a magnetic device to prevent loss. The biotin-antibody was dispensed in 50 ul of each well and incubated at room temperature for 1 h in a shaker at 800±500 rpm. After washing, streptavidin-PE was added at 50 ul/well and incubated at room temperature for 30 min in a shaker under the same conditions. Finally, after washing, wash buffer (100 ul/well) was added to the plate and incubated in a shaker for 2 min. The Luminex™ 200 setting were set according to the manufacturer's protocol. The data was calculated with a standard five-parameter logistic nonlinear regression analysis of the data (xPonent software 4.2, USA). The levels of cytokine/chemokine are normalized to the live cell counts (1×10^5 cells/mL) and presented as concentrations per mL (pg/mL or ng/mL).

IL-6 = assay: Example 9 Luminex, LPS hPBMCs: IL-6; assay type: cell-based, human; details: Bead IL-6, PBMC + LPS(5 ug/ml)
Procedure: as §1, §2, §3

[1] = PBMC + LPS(5 ug/ml) + test article 0.001 uM, Mean
[2] = PBMC + LPS(5 ug/ml) + test article 0.001 uM, single replicates (1st, 2nd, 3rd)
[3] = PBMC + LPS(5 ug/ml) + test article 0.01 uM, Mean
[4] = PBMC + LPS(5 ug/ml) + test article 0.01 uM, single replicates (1st, 2nd, 3rd)
[5] = PBMC + LPS(5 ug/ml) + test article 0.1 uM, Mean
[6] = PBMC + LPS(5 ug/ml) + test article 0.1 uM, single replicates (1st, 2nd, 3rd)
[7] = PBMC + LPS(5 ug/ml) + test article 1 uM, Mean
[8] = PBMC + LPS(5 ug/ml) + test article 1 uM, single replicates (1st, 2nd, 3rd)
[9] = PBMC + LPS(5 ug/ml) + test article 10 uM, Mean
[10] = PBMC + LPS(5 ug/ml) + test article 10 uM, single replicates (1st, 2nd, 3rd)
[11] = PBMC + LPS(5 ug/ml) + test article 100 uM, Mean
[12] = PBMC + LPS(5 ug/ml) + test article 100 uM, single replicates (1st, 2nd, 3rd)

For `CC(C)C[C@H](NC(=O)[C@H](CCC(N)=O)NC(=O)CNC(=O)[C@@H]1C[C@@H](O)CN1)C(=O)NCC(=O)O` [YDE-043] (H-[Hyp]GQLG-OH; N-terminus and C-terminus assumed), the Concentration (IL-8; [1]) was 27612.8 pg/mL, the conc/live cell (IL-8; [1]) was 5610.5 pg/10^5 and the Concentration (IL-8; [2]) was 25319.8 pg/mL and 28134.2 pg/mL and 29384.5 pg/mL. For the same molecule, the conc/live cell (IL-8; [2]) was 5754.5 pg/10^5 and 4689.0 pg/10^5 and 6387.9 pg/10^5, the Concentration (IL-8; [3]) was 27805.6 pg/mL and the conc/live cell (IL-8; [3]) was 5331.3 pg/10^5. The Concentration (IL-8; [4]) was 28010.8 pg/mL and 27056.0 pg/mL and 28350.1 pg/mL, the conc/live cell (IL-8; [4]) was 6224.6 pg/10^5 and 4099.4 pg/10^5 and 5670.0 pg/10^5 and the Concentration (IL-8; [5]) was 26729.6 pg/mL. For the same molecule, the conc/live cell (IL-8; [5]) was 4969.6 pg/10^5, the Concentration (IL-8; [6]) was 27502.4 pg/mL and 24737.2 pg/mL and 27949.2 pg/mL and the conc/live cell (IL-8; [6]) was 5500.5 pg/10^5 and 4417.4 pg/10^5 and 4990.9 pg/10^5. The Concentration (IL-8; [7]) was 26441.2 pg/mL, the conc/live cell (IL-8; [7]) was 4990.4 pg/10^5 and the Concentration (IL-8; [8]) was 27517.8 pg/mL and 23008.1 pg/mL and 28797.5 pg/mL. The conc/live cell (IL-8; [8]) was 4744.4 pg/10^5 and 4793.4 pg/10^5 and 5433.5 pg/10^5, the Concentration (IL-8; [9]) was 29354.3 pg/mL and the conc/live cell (IL-8; [9]) was 5450.9 pg/10^5. The Concentration (IL-8; [10]) was 28998.3 pg/mL and 34618.6 pg/mL and 24446.1 pg/mL, the conc/live cell (IL-8; [10]) was 5576.6 pg/10^5 and 6410.8 pg/10^5 and 4365.4 pg/10^5 and the Concentration (IL-8; [11]) was 25505.9 pg/mL. The conc/live cell (IL-8; [11]) was 4053.3 pg/10^5, the Concentration (IL-8; [12]) was 26994.4 pg/mL and 24017.4 pg/mL and the conc/live cell (IL-8; [12]) was 4353.9 pg/10^5 and 3752.7 pg/10^5. For the same molecule, the Concentration (IL-6; 0.001 uM, Mean) was 7090.4 pg/mL, the MFI (IL-6; 0.001 uM, Mean) was 197.1 and the conc/live cell (IL-6; 0.001 uM, Mean) was 1434.2 pg/10^5. For the same molecule, the Concentration (IL-6; 0.001 uM, single replicates) was 6355.1 pg/mL and 7578.4 pg/mL and 7337.9 pg/mL, the MFI (IL-6; 0.001 uM, single replicates) was 175.8 and 211.3 and 204.3 and the conc/live cell (IL-6; 0.001 uM, single replicates) was 1444.3 pg/10^5 and 1263.1 pg/10^5 and 1595.2 pg/10^5. For the same molecule, the Concentration (IL-6; 0.01 uM, Mean) was 6942.0 pg/mL, the MFI (IL-6; 0.01 uM, Mean) was 192.8 and the conc/live cell (IL-6; 0.01 uM, Mean) was 1327.4 pg/10^5. The Concentration (IL-6; 0.01 uM, single replicates) was 7062.6 pg/mL and 7011.0 pg/mL and 6752.4 pg/mL, the MFI (IL-6; 0.01 uM, single replicates) was 196.3 and 194.8 and 187.3 and the conc/live cell (IL-6; 0.01 uM, single replicates) was 1569.5 pg/10^5 and 1062.3 pg/10^5 and 1350.5 pg/10^5. The Concentration (IL-6; 0.1 uM, Mean) was 6590.8 pg/mL, the MFI (IL-6; 0.1 uM, Mean) was 182.6 and the conc/live cell (IL-6; 0.1 uM, Mean) was 1223.6 pg/10^5. For the same molecule, the Concentration (IL-6; 0.1 uM, single replicates) was 6528.0 pg/mL and 6147.3 pg/mL and 7097.1 pg/mL, the MFI (IL-6; 0.1 uM, single replicates) was 180.8 and 169.8 and 197.3 and the conc/live cell (IL-6; 0.1 uM, single replicates) was 1305.6 pg/10^5 and 1097.7 pg/10^5 and 1267.3 pg/10^5. The Concentration (IL-6; 1 uM, Mean) was 6992.5 pg/mL, the MFI (IL-6; 1 uM, Mean) was 194.3 and the conc/live cell (IL-6; 1 uM, Mean) was 1321.1 pg/10^5. For the same molecule, the Concentration (IL-6; 1 uM, single replicates) was 7131.5 pg/mL and 6164.6 pg/mL and 7681.3 pg/mL, the MFI (IL-6; 1 uM, single replicates) was 198.3 and 170.3 and 214.3 and the conc/live cell (IL-6; 1 uM, single replicates) was 1229.6 pg/10^5 and 1284.3 pg/10^5 and 1449.3 pg/10^5. For the same molecule, the Concentration (IL-6; 10 uM, Mean) was 9513.9 pg/mL, the MFI (IL-6; 10 uM, Mean) was 268.1 and the conc/live cell (IL-6; 10 uM, Mean) was 1764.4 pg/10^5. The Concentration (IL-6; 10 uM, single replicates) was 7303.5 pg/mL and 14554.8 pg/mL and 6683.4 pg/mL, the MFI (IL-6; 10 uM, single replicates) was 203.3 and 415.8 and 185.3 and the conc/live cell (IL-6; 10 uM, single replicates) was 1404.5 pg/10^5 and 2695.3 pg/10^5 and 1193.5 pg/10^5. The Concentration (IL-6; 100 uM, Mean) was 7286.3 pg/mL, the MFI (IL-6; 100 uM, Mean) was 202.8 and the conc/live cell (IL-6; 100 uM, Mean) was 1157.1 pg/10^5. The Concentration (IL-6; 100 uM, single replicates) was 7389.4 pg/mL and 7183.1 pg/mL, the MFI (IL-6; 100 uM, single replicates) was 205.8 and 199.8 and the conc/live cell (IL-6; 100 uM, single replicates) was 1191.8 pg/10^5 and 1122.4 pg/10^5.
